Results as given in PubChem BioAssay AID2060328 (Molecular Pharmacology Branch, DTP, NCI, 2025).
Where “and” joins values, the source holds several entries; their conditions need not be identical. Identical values can stand only once.

System: MDA-MB-231 multicell spheroids, viability (%T/C)
Experiment: Anticancer human tumor MDA-MB-231 cell line growth inhibition [IpAb];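 note: viability read after seven days of drug exposure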;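 for viability, T/C: 100% = DMSO vehicle control viability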
Conditions: for viability, T/C: stronger effect = lower value
Source text: Combinatorial screen of targeted agents with ipatasertib and abemaciclib in multi-cell type tumor spheroids
A high-throughput screen of multi-cell type tumor spheroids was designed to identify active combinations of targeted small molecules and ipatasertib or abemaciclib. Complex spheroids include a stromal component modeled by human endothelial cells (HUVEC) and fibroblasts modeled by human mesenchymal stem cells (MSCs). The concentration ranges selected for each drug and investigational agent were based upon clinically achievable concentrations if the clinical Cmax of the agent was known.
Compounds. The drugs and investigational agents: ipatasertib (NSC767898), abemaciclib(NSC768073), selumetinib (NSC741078), trametinib (758246), adavosertib (NSC754352), everolimus (NSC733504), sapanisertib (NSC764658), vemurafenib (NSC761431), venetoclax (NSC766270), copanlisib (NSC809693), apelisib (NSC765974), palbociblib (NSC758247), vemurafenib (NSC761431), dabrafenib (NSC764134), ravoxertinib (NSC781343), BMS-387032 (NSC767048), sotorasib (NSC818433), talazoparib (NSC767125) and afursertib (NSC778305), were obtained from the National Cancer Institute (NCI) Developmental Therapeutics Program Chemical Repository. The FDA-approved anticancer drug set is available from the NCI Developmental Therapeutics Program. […] The stock solutions were prepared in dimethyl sulfoxide (DMSO, Sigma-Aldrich, St. Louis, MO, cat. D2650) at 800-fold the tested concentration and stored at -70 degrees C prior to their use. All drugs and investigational agents were tested over a range starting from a high concentration at or near the clinical Cmax and decreasing in half-log increments. If the clinical Cmax for an agent had not been determined, the highest concentration tested was 10 microM.
NCI60 Cell Culture. NCI60 cell lines were obtained from the NCI Developmental Therapeutics Program Tumor Repository. For each lot of cells, the Repository performed Applied Biosystems AmpFLSTR Identifiler testing with PCR amplification to confirm consistency with the published Identifier STR profile for each cell line. Cells were kept in continuous culture for no more than 20 passages. The optimal seeding densities for each of the cell lines at each time point assessed were determined prior to performing the concentration response studies. Briefly, the NCI60 human tumor lines were grown as monolayers in RPMI 1640 medium supplemented with 10% FBS and 2 mmol/L L-glutamine.
An additional 9 lines were from the NCI60 cell line panel including MDA-MB-231 breast carcinoma, MDA-MB-468 breast carcinoma, MCF7 breast carcinoma, Hs578T breast carcinoma, MALME-3M melanoma, SK-MEL-2 melanoma, SK-OV-3 ovarian carcinoma, DU-145 prostate carcinoma, PC-3 prostate carcinoma, all cell lines along with major genetic alterations are listed on Table 2. Pooled donor human umbilical vein endothelial cells (HUVEC, Lonza, cat. CC-2519) and human mesenchymal stem cells (hMSC, Lonza, cat. PT-2501) were purchased from Lonza (Walkersville, MD).
PDMR cell lines were grown in complete medium (DC medium): Dulbecco's modified Eagle's medium (DMEM)/F12 supplemented with 5% fetal bovine serum (FBS), 2 mM L-glutamine, 100 U/mL penicillin and 100 µg/ml streptomycin, 0.4 µg/ml hydrocortisone, 10 ng/ml epidermal growth factor (EGF) recombinant human protein, 24 µg/mL adenine, and 0.1 mg/mL primocin. During culture from frozen stock vials, PDMR cells were cultured in the same medium containing 10 µM Y-27632 (see Table 3). The PDCs were cultured in complete DMEM/F12 media without 10 microM Y-27632 dihydrochloride for at least two passages prior to the screen. The pooled donor HUVEC and hMSC were cultured in endothelial cell growth medium 2 (PromoCell, Heidelberg, Germany, cat. C-22011) and mesenchymal stem cell growth medium 2 (PromoCell, cat. C-28009), respectively. For all experiments, HUVEC and hMSC were used at passages </=5.
[…]

[1] = curve of first compound, second compound 0.1 µM
[2] = curve of first compound, second compound 0.316 µM
[3] = curve of first compound, second compound 1 µM
[4] = curve of first compound, second compound 3.16 µM
[5] = curve of first compound, second compound 10 µM

How did the viability, T/C (compound 0.00949 µM) turn out when `CC(C)(C)c1cnc(CSc2cnc(NC(=O)C3CCNCC3)s2)o1` was run?
Its viability, T/C is 109%.

And the viability, T/C (compound 0.03 µM)?
Its viability, T/C is 118% and 115%.

And the viability, T/C (compound 0.0949 µM)?
Its viability, T/C is 120% and 105%.

What about the viability, T/C (compound 0.3 µM) of the same molecule?
Its viability, T/C is 1.96% and 1.34%.

What about the viability, T/C (compound 0.949 µM) of the same molecule?
Its viability, T/C is 1.07% and 1.11%.

What about the viability, T/C (compound 3 µM) of the same molecule?
Its viability, T/C is 0.92% and 1.78%.

What about the IC50 (curve of compound) of the same molecule?
The IC50 was 184 nM and 175 nM.

What does the source list for `C=CCn1c(=O)c2cnc(Nc3ccc(N4CCN(C)CC4)cc3)nc2n1-c1cccc(C(C)(C)O)n1` + CC(C)NCC(C(=O)N1CCN(c2ncnc3c2C(C)CC3O)CC1)c1ccc(Cl)cc1?
IC50 [1]: 219 nM; IC50 [2]: 188 nM; IC50 [3]: 170 nM; IC50 [4]: 91.4 nM; IC50 [5]: < 31.6 nM; viability, T/C (second compound 0.1 µM, first compound 0.0316 µM): 93%; viability, T/C (second compound 0.1 µM, first compound 0.1 µM): 86.6%; viability, T/C (second compound 0.1 µM, first compound 0.316 µM): 32.9%; viability, T/C (second compound 0.1 µM, first compound 1 µM): 17.8%; viability, T/C (second compound 0.1 µM, first compound 3.16 µM): 16.4%; viability, T/C (second compound 0.1 µM, first compound 10 µM): 20.5%; viability, T/C (second compound 0.316 µM, first compound 0.0316 µM): 92.5%; viability, T/C (second compound 0.316 µM, first compound 0.1 µM): 74.4%; viability, T/C (second compound 0.316 µM, first compound 0.316 µM): 30.1%; viability, T/C (second compound 0.316 µM, first compound 1 µM): 17.3%; viability, T/C (second compound 0.316 µM, first compound 3.16 µM): 15.3%; viability, T/C (second compound 0.316 µM, first compound 10 µM): 19.6%; viability, T/C (second compound 1 µM, first compound 0.0316 µM): 76.7%; viability, T/C (second compound 1 µM, first compound 0.1 µM): 68.4%; viability, T/C (second compound 1 µM, first compound 0.316 µM): 28.3%; viability, T/C (second compound 1 µM, first compound 1 µM): 16.7%; viability, T/C (second compound 1 µM, first compound 3.16 µM): 15.5%; viability, T/C (second compound 1 µM, first compound 10 µM): 17.4%; viability, T/C (second compound 3.16 µM, first compound 0.0316 µM): 60.6%; viability, T/C (second compound 3.16 µM, first compound 0.1 µM): 48.8%; viability, T/C (second compound 3.16 µM, first compound 0.316 µM): 26.2%; viability, T/C (second compound 3.16 µM, first compound 1 µM): 15.1%; viability, T/C (second compound 3.16 µM, first compound 3.16 µM): 14.6%; viability, T/C (second compound 3.16 µM, first compound 10 µM): 16.9%; viability, T/C (second compound 10 µM, first compound 0.0316 µM): 44.6%; viability, T/C (second compound 10 µM, first compound 0.1 µM): 32.5%; viability, T/C (second compound 10 µM, first compound 0.316 µM): 21.2%; viability, T/C (second compound 10 µM, first compound 1 µM): 15.3%; viability, T/C (second compound 10 µM, first compound 3.16 µM): 15%; viability, T/C (second compound 10 µM, first compound 10 µM): 16.6%

How did the IC50 [1] turn out when `CC(=O)c1c(C)c2cnc(Nc3ccc(N4CCNCC4)cn3)nc2n(C2CCCC2)c1=O` + CC(C)NCC(C(=O)N1CCN(c2ncnc3c2C(C)CC3O)CC1)c1ccc(Cl)cc1 was run?
Its IC50 is 35.1 nM.

And the IC50 [2]?
Its IC50 is 17.3 nM.

What about the IC50 [3] of the same molecule?
Its IC50 is 7.21 nM.

And the IC50 [4]?
The IC50 was 1.28 nM.

What about the IC50 [5] of the same molecule?
The IC50 was under 0.949 nM.

What about the viability, T/C (second compound 0.1 µM, first compound 0.000949 µM) of the same molecule?
The viability, T/C was 93.3%.

And the viability, T/C (second compound 0.1 µM, first compound 0.003 µM)?
Its viability, T/C is 89.6%.

And the viability, T/C (second compound 0.1 µM, first compound 0.00949 µM)?
Its viability, T/C is 67.7%.

What about the viability, T/C (second compound 0.1 µM, first compound 0.03 µM) of the same molecule?
Its viability, T/C is 53%.

And the viability, T/C (second compound 0.1 µM, first compound 0.0949 µM)?
The viability, T/C was 40.3%.

What about the viability, T/C (second compound 0.1 µM, first compound 0.3 µM) of the same molecule?
Its viability, T/C is 35%.

And the viability, T/C (second compound 0.316 µM, first compound 0.000949 µM)?
The viability, T/C was 82.4%.

What about the viability, T/C (second compound 0.316 µM, first compound 0.003 µM) of the same molecule?
Its viability, T/C is 73.8%.

And the viability, T/C (second compound 0.316 µM, first compound 0.00949 µM)?
Its viability, T/C is 58.9%.

And the viability, T/C (second compound 0.316 µM, first compound 0.03 µM)?
The viability, T/C was 42%.

What about the viability, T/C (second compound 0.316 µM, first compound 0.0949 µM) of the same molecule?
The viability, T/C was 34.4%.

What about the viability, T/C (second compound 0.316 µM, first compound 0.3 µM) of the same molecule?
The viability, T/C was 32%.

And the viability, T/C (second compound 1 µM, first compound 0.000949 µM)?
The viability, T/C was 69%.

What about the viability, T/C (second compound 1 µM, first compound 0.003 µM) of the same molecule?
Its viability, T/C is 60.9%.

What about the viability, T/C (second compound 1 µM, first compound 0.00949 µM) of the same molecule?
The viability, T/C was 45.9%.

And the viability, T/C (second compound 1 µM, first compound 0.03 µM)?
Its viability, T/C is 36%.

What about the viability, T/C (second compound 1 µM, first compound 0.0949 µM) of the same molecule?
The viability, T/C was 26.9%.

And the viability, T/C (second compound 1 µM, first compound 0.3 µM)?
The viability, T/C was 26.3%.

What about the viability, T/C (second compound 3.16 µM, first compound 0.000949 µM) of the same molecule?
The viability, T/C was 50.4%.

What about the viability, T/C (second compound 3.16 µM, first compound 0.003 µM) of the same molecule?
Its viability, T/C is 47.5%.

What about the viability, T/C (second compound 3.16 µM, first compound 0.00949 µM) of the same molecule?
The viability, T/C was 39.5%.

What about the viability, T/C (second compound 3.16 µM, first compound 0.03 µM) of the same molecule?
Its viability, T/C is 29.1%.

And the viability, T/C (second compound 3.16 µM, first compound 0.0949 µM)?
Its viability, T/C is 25.5%.

And the viability, T/C (second compound 3.16 µM, first compound 0.3 µM)?
Its viability, T/C is 22.2%.

What about the viability, T/C (second compound 10 µM, first compound 0.000949 µM) of the same molecule?
Its viability, T/C is 38.5%.

And the viability, T/C (second compound 10 µM, first compound 0.003 µM)?
The viability, T/C was 33.9%.

What about the viability, T/C (second compound 10 µM, first compound 0.00949 µM) of the same molecule?
Its viability, T/C is 27.2%.

What about the viability, T/C (second compound 10 µM, first compound 0.03 µM) of the same molecule?
Its viability, T/C is 24.7%.

What about the viability, T/C (second compound 10 µM, first compound 0.0949 µM) of the same molecule?
Its viability, T/C is 22.4%.

And the viability, T/C (second compound 10 µM, first compound 0.3 µM)?
Its viability, T/C is 20.3%.

Which results are given for `Cn1nccc1Nc1nccc(-c2ccn(C(CO)c3ccc(Cl)c(F)c3)c(=O)c2)n1` (centres undefined)?
viability, T/C (compound 0.0316 µM): 71% and 65.7%; viability, T/C (compound 0.1 µM): 59% and 53.1%; viability, T/C (compound 0.316 µM): 49.6% and 47.1%; viability, T/C (compound 1 µM): 48% and 38%; viability, T/C (compound 3.16 µM): 30.3% and 33.5%; viability, T/C (compound 10 µM): 23.5% and 21.3%; IC50 (curve of compound): 406 nM and 209 nM
